From patent US20030095958A1, “Inhibitors of bace” (priority 2001, published 2003) come the findings set out here.

Where only a bound is given, the exact number is not on record here.

Chain of BACE (P56817 46-501): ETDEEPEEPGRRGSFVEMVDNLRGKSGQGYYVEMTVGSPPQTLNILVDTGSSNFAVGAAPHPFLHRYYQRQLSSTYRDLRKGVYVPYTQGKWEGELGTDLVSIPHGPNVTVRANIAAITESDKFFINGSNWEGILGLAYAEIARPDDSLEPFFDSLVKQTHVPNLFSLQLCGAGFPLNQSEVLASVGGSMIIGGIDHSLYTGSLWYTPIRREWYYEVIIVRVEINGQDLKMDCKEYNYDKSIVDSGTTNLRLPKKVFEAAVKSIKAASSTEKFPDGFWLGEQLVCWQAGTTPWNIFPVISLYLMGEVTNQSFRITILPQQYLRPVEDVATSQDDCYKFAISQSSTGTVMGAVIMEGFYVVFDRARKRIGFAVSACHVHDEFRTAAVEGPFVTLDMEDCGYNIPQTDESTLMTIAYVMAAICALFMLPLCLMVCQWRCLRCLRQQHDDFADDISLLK

The target of the test is BACE (Homo sapiens, UniProt P56817). The test is described as follows: Ki Determination for the Inhibition of BACE (FS-1 peptide fluorescence cleavage assay). The test is classed as biochemical. Particulars: apparent Ki; 50 nM BACE, 10 μM FS-1 substrate, 0.1M sodium acetate pH 4.5. The method in brief:
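Human BACE (50 nM) was preincubated 15 min at room temperature with compound (2% DMSO) in 0.1 M sodium acetate pH 4.5, then 10 μM FS-1 peptide was added. Cleavage was followed by fluorescence (ex 355/em 495 nm), and apparent Ki came from fitting to the integrated competitive tight-binding inhibition equation.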
Consider `Cc1cc(N2CCNCC2)c(NC(=O)c2cccc3ccccc23)cc1-c1ccc(Cl)c(Cl)c1` [Compound 138, Naphthalene-1-carboxylic acid (3′,4′-dichloro-6-methyl-4-piperazin-1-yl-biphenyl-3-yl)-amide], for which the Ki is less than 3 µM.

Turning to `O=C(Nc1cccc2ccccc12)c1ccc(COc2ccccc2C(F)(F)F)cc1C1=CCNCC1` [Compound 322, N-Naphthalen-1-yl-2-(1,2,3,6-tetrahydro-pyridin-4-yl)-4-(2-trifluoromethyl-phenoxymethyl)-benzamide], the Ki was in the range of 3 to 30 µM.

On to `O=C(C1CNCCC1c1ccc(COc2ccccc2C(F)(F)F)cc1)N(Cc1ccccc1)c1ccc2ccccc2c1` (stereo not shown) [Compound 220, 4-[4-(2-Trifluoromethyl-phenoxymethyl)-phenyl]-piperidine-3-carboxylic acid benzyl-naphthalen-2-yl-amide], for which the Ki lay within 3 to 30 µM.

Regarding `c1ccc(-c2ccc(N3CCNCC3)c(NCc3ccc4ccccc4c3)c2)cc1` [Compound 165, Naphthalen-2-ylmethyl-(4-piperazin-1-yl-biphenyl-3-yl)-amine], the Ki is less than 3 µM.

In the case of `O=S(=O)(Nc1cc(C(F)(F)F)ccc1N1CCNCC1)c1ccc(-c2ccccc2C(F)(F)F)cc1` [Compound 172, 2′-Trifluoromethyl-biphenyl-4-sulfonic acid (2-piperazin-1-yl-5-trifluoromethyl-phenyl)-amide], the Ki is less than 3 µM.

As to `FC(F)Oc1ccccc1COc1ccc2c(c1)c1c(n2Cc2cccc3ccccc23)CNCC1` [Compound 518, 6-(2-Difluoromethoxy-benzyloxy)-9-naphthalen-1-ylmethyl-2,3,4,9-tetrahydro-1H-b-carboline], the Ki was less than 3 µM.

On to `Fc1cccc(F)c1-c1cc(COc2ccccc2C(F)(F)F)c(C2=CCNCC2)cc1COc1ccccc1C(F)(F)F` [Compound 349, 4-[2′,6′-Difluoro-2,5-bis-(2-trifluoromethyl-phenoxymethyl)-biphenyl-4-yl]-1,2,3,6-tetrahydro-pyridine], for which the Ki is less than 3 µM.

`N#Cc1ccccc1-c1ccc(COc2ccc3c(c2)c2c(n3C(=O)c3cccc4ccccc34)CNCC2)cc1` [Compound 532, 4′-[9-(Naphthalene-1-carbonyl)-2,3,4,9-tetrahydro-1H-b-carbolin-6-yloxymethyl]-biphenyl-2-carbonitrile]: the Ki is less than 3 µM.

With `O=C(OCc1ccc(COc2ccccc2C(F)(F)F)cc1C1=CCNCC1)Oc1ccc2ccccc2c1` [Compound 319, Carbonic acid naphthalen-2-yl ester 2-(1,2,3,6-tetrahydro-pyridin-4-yl)-4-(2-trifluoromethyl-phenoxymethyl)-benzyl ester], the Ki was less than 3 µM.

For the molecule `CC(O)c1ccccc1-c1cc(COc2ccccc2C(F)(F)F)c(C2=CCNCC2)cc1COc1ccccc1C(F)(F)F` (stereo not shown) [Compound 355, 1-[4′-(1,2,3,6-Tetrahydro-pyridin-4-yl)-2′,5′-bis-(2-trifluoromethyl-phenoxymethyl)-biphenyl-2-yl]-ethanol], the Ki is less than 3 µM.

For `FC(F)(F)c1ccccc1OCc1cc(-c2cccc3ccccc23)c(COc2ccccc2C(F)(F)F)cc1C1=CCNCC1` [Compound 301, 4-[4-Naphthalen-1-yl-2,5-bis-(2-trifluoromethyl-phenoxymethyl)-phenyl]-1,2,3,6-tetrahydro-pyridine], the Ki is less than 3 µM.

For the molecule `O=C(NC(c1ccccc1)c1ccccc1)C1CNCCC1c1ccc(COc2ccccc2C(F)(F)F)cc1` (stereo not shown) [Compound 211, 4-[4-(2-Trifluoromethyl-phenoxymethyl)-phenyl]-piperidine-3-carboxylic acid benzhydryl-amide], the Ki lay in the range of 3 to 30 µM.

As for `FC(F)(F)c1ccccc1OCc1cc(-c2ccccc2)c(COc2ccccc2C(F)(F)F)cc1C1=CCNCC1` [Compound 306, 4-[2,5-Bis-(2-trifluoromethyl-phenoxymethyl)-biphenyl-4-yl]-1,2,3,6-tetrahydro-pyridine], the Ki is less than 3 µM.
